# Test results published in patent publication US20250205312A1, “Orally Available Albenatide” (AlbuNext, LLC, priority 2023, published 2025).
# “And” between values parts separate entries of the source, which are not always exact repeats. Equal values may be shown once.
# Test system: db/db mice
# Assay: Pharmacodynamics study: blood glucose level-time profiles after single treatment
# Assay type: in vivo
# Settings: SC 0.8 mg/kg
# Text: For pharmacodynamics studies, db/db mice were randomly divided into 5 groups (n=3). The test article preparation and dosing procedure followed the same way as described in PK study above. The study protocol is described in Table 6.
substance,measurement,setting,value
CJC-1134 [CJC-1134-SC],"Blood Glucose AUC, Mean",db/db mice (n=3),364.1 mmol·h/L
same,"Blood Glucose Level, Mean","db/db mice (n=3), 0 h after fasting",15.2 mmol/L
same,"Blood Glucose Level, Mean","db/db mice (n=3), 0.25 h",22.4 mmol/L
same,"Blood Glucose Level, Mean","db/db mice (n=3), 0.5 h",19.6 mmol/L
same,"Blood Glucose Level, Mean","db/db mice (n=3), 1 h",14.6 mmol/L
same,"Blood Glucose Level, Mean","db/db mice (n=3), 3 h",13.5 mmol/L
same,"Blood Glucose Level, Mean","db/db mice (n=3), 6 h",16.3 mmol/L
same,"Blood Glucose Level, Mean","db/db mice (n=3), 8 h",13.0 mmol/L
same,"Blood Glucose Level, Mean","db/db mice (n=3), 24 h",17.4 mmol/L
same,Blood Glucose Level,"db/db mice, 0 h after fasting, individual mice, 0.8 mg/kg",8.7 mmol/L and 16.4 mmol/L and 20.6 mmol/L
same,Blood Glucose Level,"db/db mice, 0.25 h, individual mice, 0.8 mg/kg",20.5 mmol/L and 21.2 mmol/L and 25.6 mmol/L
same,Blood Glucose Level,"db/db mice, 0.5 h, individual mice, 0.8 mg/kg",18.8 mmol/L and 21.0 mmol/L and 19.0 mmol/L
same,Blood Glucose Level,"db/db mice, 1 h, individual mice, 0.8 mg/kg",11.5 mmol/L and 16.5 mmol/L and 15.9 mmol/L
same,Blood Glucose Level,"db/db mice, 3 h, individual mice, 0.8 mg/kg",10.4 mmol/L and 14.0 mmol/L and 16.1 mmol/L
same,Blood Glucose Level,"db/db mice, 6 h, individual mice, 0.8 mg/kg",12.7 mmol/L and 18.7 mmol/L and 17.5 mmol/L
same,Blood Glucose Level,"db/db mice, 8 h, individual mice, 0.8 mg/kg",11.3 mmol/L and 16.3 mmol/L and 11.4 mmol/L
same,Blood Glucose Level,"db/db mice, 24 h, individual mice, 0.8 mg/kg",17.0 mmol/L and 16.9 mmol/L and 18.4 mmol/L
same,Blood Glucose AUC,"db/db mice, individual mice, 0.8 mg/kg",323.1 mmol·h/L and 399.5 mmol·h/L and 369.8 mmol·h/L
